What all share (assay type): cell-based, human
The subject of experiment [1] is H1975 cells. Kind of experiment: Inhibition of cell proliferation, CCK8 method. The following applies: H1975 EGFR mutant cells, 48 h, read-out: Inhibitory activity (IC50) against H1975. The protocol:
(§1) The stock solution was diluted with the corresponding culture medium to the required concentration just before the experiment.
(§2) HBE cells and BEAS-2B cells are normal lung bronchial epithelial cell lines, and both cells were cultured in DMEM high glucose medium (supplemented with 10% fetal bovine serum and 1% double antibody) to the logarithmic growth phase; H460 cells, A549 cells, H1975 cells and HCC827 cells are lung cancer cell lines, and all of them were cultured in RPMI1640 medium (supplemented with 10% fetal bovine serum and 1% double antibody) to the logarithmic growth phase. Among them, H1975 cells and HCC827 cells are EGFR mutant cells.
(§3) The cells were counted, and then seeded in a 96-well plate at a density of 5000 cells/well, 100 μl for each well. The culture plate was moved into a CO2 incubator and incubated for 24 h at 37° C. and 5% CO2. Compounds at different concentrations were added to each well, 5 replicate wells for each concentration, and the cells were treated with the compounds for 48 hours. CCK8 detection reagent was added to each well according to the operation manual, and then the plate was further incubated for 1 h before terminating the culture. 450 nm wavelength was chosen, and the absorbance value of each well was adjusted on the microplate ELISA analyzer. The result was recorded. […] was taken as the horizontal axis, and absorbance as the vertical axis to plot a curve. The half inhibitory concentration (IC50) was calculated by Bliss method. Each experiment was repeated at least 3 times.
(§4) Normal lung cell lines and different lung cancer cell lines were selected for experiments.

The subject of a further experiment is HBE cells. The experiment is described as follows: Inhibition of cell proliferation, CCK8 method. To be noted: HBE normal bronchial epithelial cells, 48 h, CCK8; read-out: Inhibitory activity (IC50) against HBE. As for the experimental part:
as §1, §2, §3, §4
For orientation: Tetrazolium dyes change colour on reduction, which living cells bring about.

In experiment [2] the test system is HCC827 cells. Kind of experiment: Inhibition of cell proliferation, CCK8 method. The following applies: HCC827 EGFR mutant cells, 48 h, CCK8, read-out: Inhibitory activity (IC50) against HCC827. As for the experimental part:
as §1, §2, §3, §4

Experiment [3] relates to normal cells and different lung cancer cell lines. The experiment is described as follows: Inhibition of cell proliferation, CCK8 method, comparison in words over the whole cell panel. The following applies: BEAS-2B, HBE, H460, A549, H1975, HCC827; CCK8, 48 h. As for the experimental part: (§5) Compounds 1-9 of the present invention were respectively weighed and dissolved in 1 ml of dimethyl sulfoxide (DMSO), to prepare a 10 mM drug solution, which was stored in a refrigerator at −20° C. in the dark after packaging. The stock solution was diluted with the corresponding culture medium to the required concentration just before the experiment.
as §2
as §3, with “When the cells were cultured to 90% of the growth density, the cells were digested with 0.25% trypsin to prepare a single cell suspension. The cells” for “The cells”
(§6) Normal lung cell lines and different lung cancer cell lines were selected for experiments. Amongst, the compound with high anti-cancer activity was screened, whose anti-tumor activity was further studied.

A further experiment concerns A549 cells. The experiment is described as follows: Inhibition of cell proliferation, CCK8 method. The following applies: A549 lung adenocarcinoma cells, 48 h, read-out: Inhibitory activity (IC50) against A549. The protocol:
as §5, §2
as §3, with “When the cells were cultured to 90% of the growth density, the cells were digested with 0.25% trypsin to prepare a single cell suspension. The cells” for “The cells”
as §6

In another experiment the test system is BEAS-2B cells. The experiment is described as follows: Inhibition of cell proliferation, CCK8 method. To be noted: BEAS-2B normal bronchial epithelial cells, 48 h, read-out: Inhibitory activity (IC50) against BEAS-2B. As for the experimental part:
as §5, §2
as §3, with “When the cells were cultured to 90% of the growth density, the cells were digested with 0.25% trypsin to prepare a single cell suspension. The cells” for “The cells”
as §6

A further experiment has as its system H460 cells. The experiment is described as follows: Inhibition of cell proliferation, CCK8 method. To be noted: 48 h, read-out: Inhibitory activity (IC50) against H460. As for the experimental part: as §5, §2
as §3, with “When the cells were cultured to 90% of the growth density, the cells were digested with 0.25% trypsin to prepare a single cell suspension. The cells” for “The cells”
as §6

The subject of experiment [4] is H1975 cells. The experiment is described as follows: Cell cycle, PI staining, flow cytometry. To be noted: 18 h (control 30.25). The protocol:
(§7) A variety of different cells in the logarithmic growth phase were inoculated evenly in a 6-well plate at a concentration of 1×10^6 cells/well, 2 ml for each well, and then incubated overnight. Then, different compounds were added, and each compound was set different concentrations. After 18 h, the cells were collected, resuspended in PBS, and centrifuged to remove the supernatant, to which was then added 0.5 ml of pre-cooled 75% absolute ethanol dropwise, followed by vortexing to mix the cells and standing overnight at 4° C. The solution was centrifuged at 1000 rpm/min for 4 min, and the supernatant was discarded. Propidium iodide staining solution was prepared by using 5.6 ml staining buffer, 210 μl propidium iodide staining solution (25×), and 56 μl RNaseA (2.5 mg/ml). 0.4 ml of propidium iodide staining solution was added to each tube to resuspend the cells, and then incubated for 30 min at room temperature in the dark. The cell suspension was gently pipetted to mix, filtered into a flow tube, and stored in the dark at 4° C. The cells were detected on the flow cytometer within 1 h.
(In general: Flow cytometry measures light scatter and fluorescence of single cells or particles in a stream.)

Experiment [5] deals with HCC827 cells. The experiment is described as follows: Cell cycle, PI staining, flow cytometry. The following applies: 18 h (control 33.66). The protocol:
as §7

Experiment [6] deals with H1975 cells. Kind of experiment: Apoptosis, Annexin V-FITC/PI double staining, flow cytometry. The following applies: 18 h (control 9.2). As for the experimental part: (§8) Apoptosis was detected by Annexin V-FITC/PI double staining method. A variety of different cells in the logarithmic growth phase were inoculated evenly in a 6-well plate at a concentration of 1×10^6 cells/well, 2 ml for each well, and then incubated overnight. Then, different compounds were added, and each compound was set different concentrations. After 18 h, the cells were collected with 0.25% trypsin without EDTA and washed twice with PBS solution. Then, the cells were stained by the apoptosis detection kit according to the instructions, and analyzed by flow cytometry.
(§9) In the experiment, human lung cancer cells HCC827 cells and H1975 cells were selected as the detection system. The control group was a blank control (DMSO). The test concentrations of the compounds were 0.5 μM and 5 μM. After treatment with the compounds for 18 h, the flow cytometry was used for detection. In the apoptosis result graph, the cells in quadrant E1 are necrotic cells, the cells in quadrant E2 are late apoptotic cells, the cells in quadrant E3 area represent live cells, and the cells in quadrant E4 are early apoptotic cells.

The subject of experiment [7] is HCC827 cells. Described as above. To be noted: 18 h (control 10.8). The protocol: as §8, §9
The mark [8] stands for this setting: H460 large cell lung cancer cells.

Read-outs that look alike come from different tables or passages of the source.

For orientation: IC50 means the concentration needed to halve the response being measured.

For `C=CC(=O)Nc1cccc(Oc2nc(Nc3ccc(N4CCN(C)CC4)cc3)nc3[nH]ccc23)c1` [Compound 3], the IC50 worked out at 22 µM in the experiment with H1975 cells [1]; 28.1 µM in the experiment on HBE cells; 0.24 µM in the experiment on HCC827 cells [2]; 9.92 µM in the experiment on A549 cells; 23.8 µM with BEAS-2B cells; 36 µM in the experiment with H460 cells (setting [8]). Also, the “inhibitory effect on different cell lines (in words)” value in experiment [3] is on record as “lower”.
In the case of `C=CC(=O)Nc1cccc(Oc2nc(Nc3ccc(N4CCN(C)CC4)c(F)c3)nc3[nH]ccc23)c1` [Compound 1], the IC50 in the experiment with H1975 cells [1] stood at 2.06 µM; in the experiment on HCC827 cells [2], 0.1 µM; with A549 cells it was 1.92 µM; with BEAS-2B cells, 3.68 µM; in the experiment with H460 cells (setting [8]), 6.02 µM. The “inhibitory effect on different cell lines (in words)” value in experiment [3] is recorded as “basically the same as that of the positive control”.
As to `C=CC(=O)Nc1cccc(Oc2nc(Nc3ccc(N4CCN(C)CC4)c(F)c3)nc3[nH]ccc23)c1` [Avitinib, reference compound], the IC50 in the experiment on HCC827 cells [2] (Homo sapiens) was found to be 0.11 µM; with A549 cells (Homo sapiens) it was 2.01 µM; with BEAS-2B cells (Homo sapiens), 4.11 µM; with H460 cells (Homo sapiens, NCI-H460, H460 large cell lung cancer cells), 5.68 µM. The “S phase (%)” value with H1975 cells [4] (0.5 μM) stood at 3.74%; with H1975 cells [4] (5 μM), 13.19%; in the experiment with HCC827 cells [5] (0.5 μM) it was 9.09%; in the experiment with HCC827 cells [5] (5 μM) it was 10.83%. In addition, the “Total apoptosis rate (%)” value in the experiment with H1975 cells [6] (0.5 μM) was 9.5%; with H1975 cells [6] (5 μM), 11.7%; in the experiment with HCC827 cells [7] (0.5 μM) it was 30.3%; in the experiment with HCC827 cells [7] (5 μM), 35.4%.

(Values after patent US20230075765A1, “PYRROLO[2,3-D]PYRIMIDINE DERIVATIVE TARGETING EGFR MUTATION, AS WELL AS THE PREPARATIVE METHOD AND THE USE THEREOF” (WEST CHINA HOSPITAL, SICHUAN UNIVERSITY, priority 2020, published 2023).)
